The source of these data is US20240093150A1, “IMPROVED T-CELLS FOR CANCER THERAPY USING AMINO ACID STARVATION PATHWAYS” (UNIVERSITY HEALTH NETWORK, priority 2021, published 2024).

The subject of experiment [1] is CD8+ T cells. Kind of experiment: Ribo-Seq / RNA-seq gene expression profiling of halo-treated CD8+ T cells. It counts as cell-based, mouse. The note with it: halo vs vehicle.
Experiment [2] deals with CD8+ T cells. Kind of experiment: Targeted mass spectrometry metabolic profile of halo-treated cells. It counts as cell-based, mouse. The following applies: halo vs vehicle. As for the experimental part:
Seahorse was performed as previously described (Saibil et al., 2019). ATP quantification was performed using a commercial kit (Sigma) according to the recommended protocol. For metabolic profiling of Halo treated cells, mass spectrometry was performed on metabolites extracted from cell pellets. Briefly, cell pellets were washed and snap frozen in 1 ml 80% methanol. Samples were probe sonicated for 5 seconds, power level 3 (Fisher Scientific Model 100 Sonicator). 5 ul of internal standard (Isotopically labeled amino acids, 1.25 mM, PN MSK-A2-1.2, Cambridge Isotope Laboratories) was added to a 100 ul aliquot of supernatant. 10 ul of this solution was diluted in 990 ul of buffer containing 95% acetonitrile, 5% 20 mM ammonium carbonate (pH 9.8). Quality control samples (QCs) were prepared by pooling 100 μl of each sample. All samples including QCs, where then analyzed by selected reaction monitoring (SRM) using a Waters XBridge Amide 1.0×50 mm, 3.5 μm column and a 10 mM ammonium carbonate (pH 10) acetonitrile buffer system coupled with a Sciex Qtrap 5500 triple quadrupole linear ion trap tandem mass spectrometer. The data acquisition included 317 transitions. Data were captured using Analyst, version 1.6.2 software (Sciex); peak integration was performed using Skyline, version 4.1 (Pino et al., 2020). […]

For the next experiment, the system named is P14 CD8+ T cells. Nature of the experiment: Flow cytometry of activated mouse CD8+ T cells treated with halofuginone (cytokines, surface markers, phosphoflow, autophagosome staining). It counts as cell-based. The following applies: for IFN-γ in halo-treated cells: inhibitor concurrent with Halofuginone (3-MA 2.5 mM; Oligomycin 1 uM).
In another experiment the test system is human CD8+ T cells. Kind of experiment: Human CD8+ T cells activated in the presence of halofuginone (Seahorse, flow cytometry, DMF5 TCR transduction). The experiment is classed as cell-based. As to the method: Peripheral blood mononuclear cells were obtained from healthy donors following institutional review board approval. Written informed consent was obtained from all donors who provided the samples. PBMCs were magnetically sorted for naïve CD8+ T cells (Miltenyi Biotec) and activated with CD3/CD28 Dynabeads (Invitrogen) at 1:1 ratio in complete IMDM for 5 days in the presence of Halo (12.5 ng/mL) or vehicle control. For DMF5 TCR transduction, purified naïve CD8+ T cells were stimulated with CD3/CD28 Dynabeads at 1:1 ratio in complete IMDM media and 100 IU/ml recombinant human IL-2. Two days after stimulation, T cells were infection with PG13-derived virus encoding DMF5 TCR and a truncated NGFR tag, separated by 2A sequences. Halofuginone (12.5 ng/mL) or vehicle control was added on days 0 and 2. Phenotype was analyzed on day 5.

Experiment [3] concerns CD8+ T cells. Nature of the experiment: Seahorse and ATP quantification in halo-treated mouse CD8+ T cells. It counts as cell-based. The following applies: for enhanced OXPHOS (basal OCR) in halo-treated cells: inhibitor added concurrent with Halofuginone (3-MA 2.5 mM).
Setting [4] is: Halo 50 ng/mL last 48 hours, vs vehicle.

For `O=C(CC1NCCCC1O)Cn1cnc2cc(Br)c(Cl)cc2c1=O` (stereo not shown) [halofuginone], in the experiment on CD8+ T cells [1], the “4-1BB expression (RNA)” value is reported as “up-regulated”; the “Trm-associated genes, transcriptionally or translationally” value is given as “very few of the Trm-associated genes were up-regulated”; the “electron transport chain (ETC) complex genes” value was “increased both transcription and translation of all five complexes”; the “genes associated with glycolysis, TCA cycle, fatty acid oxidation” value is “Increased enrichment of genes associated with glycolysis and the TCA cycle, but not fatty acid oxidation”. Further, the “ribosomal-associated Bhlhe40 transcripts” value in the experiment with CD8+ T cells [1] was “marked increase”. Further, the CD69 gene expression entry in the experiment on CD8+ T cells [1] (among Trm-associated genes) is listed as “one of the most upregulated genes”. In the experiment on CD8+ T cells [1] (panel of markers other than 4-1BB), the “expression of costimulatory and co-inhibitory molecules (transcriptional, translational and protein level)” value is recorded as “not enhanced”. Also, the “levels of amino acids” value with CD8+ T cells [2] is “primarily up-regulated”. Moreover, in the experiment with P14 CD8+ T cells (Halo 50 ng/mL for the last 48 hours of IL-2 expansion, vs vehicle), the IFN-γ production result was “increased IFN-γ production”. In addition, in the experiment on P14 CD8+ T cells (setting [4]), the CD98 expression result was “enhanced”; the “TNF-α and IL-2 production” value was “to a lesser extent, increased”; the “granzyme B expression” value was “significant increase”; the “polyfunctionality (co-expression of IFN-γ, TNF-α, IL-2)” value is reported as “increased polyfunctionality”. Besides, in the experiment on P14 CD8+ T cells (flow cytometry, halo vs vehicle), the “surface expression of 4-1BB” value is “increased percentage of cells expressing 4-1BB as well as a higher level of expression on a per cell basis”. In the experiment on P14 CD8+ T cells (halo-treated cells vs vehicle), the “autophagy (fluorescent staining of autophagosomes)” value was “increased evidence of autophagy” and the p-mTOR entry is reported as “increase in p-mTOR”. The “surface markers of Tcm lineage (CD62L, CD44, CD127, CD25)” value in the experiment on P14 CD8+ T cells (halo-treated cells, same as vehicle treated cells) is “CD62^Lo, CD44^Hi CD127^Lo and CD25^Hi”. Also, in the experiment on P14 CD8+ T cells (halo-treated, unlike vehicle-treated control cells), the “CD69+ CD103+ double-positive cells” value is “induced a population of CD69^+ CD103^+ double-positive cells”. The “expression of 4-1BB, Granzyme B and CD98 in TCR+ T cells” value in the experiment on human CD8+ T cells (DMF5 TCR transduced, Halofuginone 12.5 ng/mL, day 5, majority of patients) was “increased expression”. Also, in the experiment with human CD8+ T cells (Halo 12.5 ng/mL, 5 days), the OXPHOS result is on record as “enhanced”; the “expression of 4-1BB and CD98” value is given as “increasing”. In addition, the “transduction efficiency of the DMF5 TCR” value with human CD8+ T cells (Halofuginone 12.5 ng/mL added on days 0 and 2) is recorded as “did not inhibit”. Moreover, in the experiment on CD8+ T cells [3] (setting [4]), the ATP levels entry was “increase”, the “OCR (oxygen consumption rate)” value is “increase” and the “OCR:ECAR ratio” value is given as “increase”.
Regarding `CCOC(=O)[C@@]1(CCCCCCOc2ccc(Cl)cc2)CO1` [etomoxir], the “effect on OCR in halo-treated cells” value in the experiment with CD8+ T cells [3] (Etomoxir 4 μm injected in Seahorse) is “minimal effects”.
As to `Cn1cnc(N)c2ncnc1-2` [3MA], in the experiment on P14 CD8+ T cells (cultured in the presence of 3MA 2.5 mM), the “4-1BB or granzyme B expression in halo-treated cells” value is “no difference”. Moreover, the “IFN-γ in halo-treated cells” value in the experiment on P14 CD8+ T cells was “marked reduction”. Moreover, the “OXPHOS in vehicle-treated cells” value in the experiment on CD8+ T cells [3] (3-MA 2.5 mM) is reported as “no effect”. Also, the “enhanced OXPHOS (basal OCR) in halo-treated cells” value in the experiment on CD8+ T cells [3] is “entirely abrogated”.
Regarding `CC[C@H]1/C=C/C=C/C[C@@H](C)[C@H](O)[C@@](C)(O)C(=O)[C@@H](C)[C@H](O)[C@@H](C)C(=O)[C@@H](C)[C@H](O)[C@@H](C)/C=C/C(=O)O[C@@H]2[C@H](C)[C@H](CC1)O[C@]1(CC[C@H](C)[C@H](C[C@@H](C)O)O1)[C@H]2C` [oligomycin], the “IFN-γ in halo-treated cells” value in the experiment with P14 CD8+ T cells is given as “marked reduction”.
As for `NC1(C(=O)O)CC2CCC1C2` (stereo not shown) [BCH], in the experiment with P14 CD8+ T cells (halo-treated cells plus BCH), the “halo-induced p-mTOR increase in the presence of inhibitor” value was “reversed”. In addition, the “expression of 4-1BB, Granzyme B and IFN-γ in halo-treated cells” value in the experiment with P14 CD8+ T cells (inhibitor added concurrent with Halofuginone (Rapamycin 20 nM)) is listed as “inhibition of expression”. In the experiment on CD8+ T cells [3], the “enhanced OXPHOS (basal OCR) in halo-treated cells” value is reported as “did not affect”.
